The record followed here is patent US10391084B2, “Methods and compositions to treat cancer” (CHILDREN'S HOSPITAL MEDICAL CENTER, priority 2013, dated 2019).

For data set [1], the system named is midkine promoter coupled to a luciferase reporter gene. The experiment in a line: Midkine promoter-luciferase reporter screen in stably transfected HEK293 cells, dose-response. It counts as cell-based. Particulars: for EC50: Homo sapiens, HEK293 reporter cells, midkine expression upregulated with retinoic acid. The procedure:
A library of compounds was screened for activity to reduce expression of midkine in vitro. HEK293 cells were stably transfected with the pGL4 vector comprising a midkine promoter coupled to a luciferase reporter gene. […] Changes in luciferase production were measured to access the inhibitory activity of the test compounds. The primary screen included 44,000 test compounds. Test compounds that reduced cell viability by more than 50% were eliminated from the screen. From the primary screen, 351 test compounds were further examined. From the secondary screen, 78 test compounds were examined using a dose-response assay, and the EC50 for the test compounds was determined.
In order to find a therapeutic compound that inhibits MDK expression, a MDK reporter cell line by stably transfecting HEK293 cells with a MDK promoter-fused luciferase construct was developed. This modified cell line was used to screen 44,000 compounds at the Drug Discovery Center at the University of Cincinnati. See Example 1. Detection of luciferase activity was used to identify MDK inhibitors.

Data set [2] relates to H520 lung squamous cell carcinoma cells. Kind of data set: Cell viability assay, trypan blue exclusion, H520. Type of data set: cell-based, human. Particulars: H520, 0 to 500 nM, 48 hours after treatment. The source says:
(§1) Cell Lines and Culture Conditions: the human pulmonary adenocarcinoma cells H322, H358, H441 and A549 and the human lung squamous cell carcinoma cells H520 were obtained from the American Type Culture Collection (Manassas, Va.) and grown in RPMI 1640 (H322, H358, H520) or high glucose Dulbecco's modified Eagle medium (H441, A549 cells) supplemented with 10% heat-inactivated fetal bovine serum. The human malignant mesothelioma cells ACC-MESO-1 (MESO-1) obtained from JCRB Cell Bank (Osaka, Japan) and the human lung squamous cell carcinoma cells SQ5 were grown in RPMI 1640 supplemented with 10% heat-inactivated fetal bovine serum. The normal human lung fibroblasts (NHLF) obtained from Clonetics (San Diego, Calif.) were grown in high glucose Dulbecco's modified Eagle medium. All cell lines were cultured in 10% CO2 at 37° C.
Cell viability assay: H441 cells, A549 cells, H520 cells, HEK293 cells and NHLF were plated in 24-well plates at a density of 1×10^5 cells and cultured at 37° C. for 24 hours. Medium was removed by aspiration and replaced with fresh culture medium containing iMDK dissolved in DMSO (10, 50, 100, 500 nmol/L). DMSO alone was used as the control. Cells were treated for 48 hours and collected by trypsinization. Viable cells were assessed by trypan blue exclusion. […]

A further data set relates to XIAP. The experiment in a line: Immunoblot of XIAP in H441 cells. Type of data set: cell-based, human. Particulars: H441, dose- and time-dependent. The procedure: (§2) Immunoblot analysis: cells were lysed in ice-cold lysis buffer [1% Triton X-100, 20 mM Tris-HCl (pH 8.0), 137 mM NaCl, 10% glycerol (v/v), 2 mM EDTA, 1 mM sodium orthovanadate (v/v), 1 mM phenylmethylsulfonyl fluoride]. Cell lysates were clarified by centrifugation (10 min at 15,000×g at 4° C.) and protein concentration determined using the BCA protein assay (Thermo Fisher Scientific, Rockford, Ill.). Equal amounts of protein were separated on an SDS-PAGE gel. The gel was electrophoretically transferred to a Hybond PVDF transfer membrane (Amersham, Arlington Heights, Ill.) and incubated with primary and secondary antibodies according to the Supersignal® West Pico chemiluminescence protocol (Pierce, Rockford, Ill.). Antibody specific for β-actin antibody was obtained from Sigma (St. Louis, Mo.) and antibody specific for human MDK was obtained from Abcam (Cambridge, UK). Antibody specific for caspase-3, PI3 kinase p85, phosphorylated-PI3K p85 (Tyr458)/p55 (Tyr199), AKT, phosphorylated-AKT (Ser473), Bad, XIAP, survivin were obtained from Cell Signaling Technology (Beverly, Mass.). Antibody specific for VEGF was purchased from Santa Cruz Biotechnology (Santa Cruz, Calif.). Secondary horseradish peroxidase-conjugated antibodies were obtained from Jackson Immunoresearch Laboratories (West Grove, Pa.). […]
A general note: A western blot detects proteins with antibodies after separation by electrophoresis.

The test system of another data set is caspase-3. Kind of data set: Immunoblot of caspase-3 cleavage in H441 cells. Type of data set: cell-based, human. Particulars: H441, even at the lowest concentrations (5 nM), 48 hours after treatment. The procedure: as §2
Data set [3] deals with H441 cells. The experiment in a line: Flow cytometric analysis for apoptosis (sub-G0/G1 DNA content), H441. Type of data set: cell-based, human. Particulars: 72 hours, DMSO control 1.24%. The procedure: (§3) Flow cytometric analysis for apoptosis: cells were plated in 24-well plates at a density of 0.5×10^5 cells per well 1 day before the treatments. After 72 hours, cells were harvested and washed once with PBS. Cells were resuspended in PBS containing 0.2% Triton X-100 and 1 mg/ml RNase for 5 min at room temperature and then stained with propidium iodide at 50 μg/ml to determine sub-G0/G1 DNA content using a FACScan. Doublets, cell debris, and fixation artifacts were gated out, and sub-G0/G1 DNA content was determined using Cell Quest Ver. 3.3 software.

The test system of data set [4] is H441 cells. The experiment in a line: Hoechst staining for apoptotic morphology in H441 cells. It counts as cell-based, human. The conditions noted are these: H441, Hoechst 33342, 48 hours after treatment. The procedure: Hoechst staining: the morphologic characteristics of apoptosis were evaluated using Hoechst 33342 dye (Molecular Probes, Eugene, Oreg.), which stains DNA. Cells were incubated with 1 μg/ml Hoechst dye and then visualized under a fluorescence microscope (IX81, Olympus Medical Systems Corp., Tokyo, Japan) (Ogawa N, et al., Int. J. Cancer. 1997; 73:367-70).

In data set [5] the test system is xenografts derived from H441 lung adenocarcinoma cells. Kind of data set: H441 lung adenocarcinoma xenograft in nude mice. It counts as in vivo, BALB/c nude mice. The conditions noted are these: 9 mg/kg intraperitoneal. The procedure:
(§4) Mouse experiments: human lung cancer xenografts were established in 6-wk-old female BALB/c nude mice (Charles River Laboratories Japan, Kanagawa, Japan) by subcutaneous (s.c.) inoculation of H441 cells (1×10^6/50 μl) mixed with Matrigel® (BD Pharmingen, San Diego, Calif.; 50 μl) into the dorsal flank (Watanabe N, et al., Clin. Cancer Res. 2008; 14:4631-9). The mice were randomly assigned into three groups (n=8 per group) 14 days after tumor inoculations. One group of mice was intraperitonially injected with 100 μl solution containing iMDK (9 mg/kg) three days per week (on days 1, 3, 5, 8, 10) and another group of mice was injected five days per week (on days 1, 2, 3, 4, 5, 8, 9, 10). DMSO was injected into the control group. Tumors were measured two to three times a week, and tumor volume was calculated as a×b^2×0.5, where a and b were large and small diameters, respectively. On day 10, all mice were sacrificed after body weight was measured and tumors were removed and prepared for histology. For analysis of serum AST and ALT, blood was drawn from the heart 48 hours after intraperitonially injected with 100 μl solution containing iMDK (9 mg/kg). DMSO was injected into the control group and four mice were used for each group.
For immunohistochemistry, sections were sequentially deparaffinized through a series of xylene, graded ethanol, and water immersion steps. After being autoclaved in 0.2% citrate buffer for 15 minutes, sections were incubated with 3% hydrogen peroxide for 30 minutes to block endogenous peroxidase activity. A primary antibody specific for PI3 kinase p85, phosphorylated-PI3K p85 (Tyr458)/p55 (Tyr199) from Cell Signaling Technology and for MDK from Abcam were used. Specimens were incubated overnight at 4° C. with a 1:200 dilution of antibody followed by three washes with TBS. The slides were treated with streptoavidin-biotin complex (Envision System labeled polymer, horseradish peroxidase (HRP), Dako, Carpinteria, Calif.) for 60 minutes at a dilution of 1:100. […]

The test system of another data set is BAD. Kind of data set: Immunoblot of BAD in H441 cells. It counts as cell-based, human. Particulars: H441, dose- and time-dependent. As to the method: as §2
Data set [6] is described as follows: Systemic toxicity in mice (body weight, serum AST and ALT). It counts as in vivo, BALB/c nude mice. The procedure:
as §4

The test system of a further data set is survivin. Kind of data set: Immunoblot of survivin in H441 cells. Type of data set: cell-based, human. Particulars: H441, dose- and time-dependent. The procedure: as §2
In data set [7] the test system is H441 lung adenocarcinoma cells. The experiment in a line: Cell viability assay, trypan blue exclusion, H441. Type of data set: cell-based, human.
Description: as §1
The following day 100 pmol of Smart Pool MK siRNA or nontargeting siRNA (Dharmacon, Perbio Science, France) was transfected using 2 μl Lipofectamine 2000 (Invitrogen Life Technologies, Carlsbad, Calif.) according to the manufacturer's instructions. […]
Cell viability assay: H441 cells, A549 cells, H520 cells, HEK293 cells and NHLF were plated in 24-well plates at a density of 1×10^5 cells and cultured at 37° C. for 24 hours. […] Viable cells were assessed by trypan blue exclusion. […]

The next data set has as its system PI3K. Kind of data set: Immunoblot of PI3K phosphorylation in H441 cells. It counts as cell-based, human. The conditions noted are these: H441, dose- and time-dependent. As to the method: as §2
Data set [8] concerns HEK293 embryonic kidney cells. The experiment in a line: Cell viability assay, trypan blue exclusion, HEK293. Type of data set: cell-based. Particulars: HEK293, 0 to 500 nM, 48 hours after treatment. As to the method: Cell viability assay: H441 cells, A549 cells, H520 cells, HEK293 cells and NHLF were plated in 24-well plates at a density of 1×10^5 cells and cultured at 37° C. for 24 hours. Medium was removed by aspiration and replaced with fresh culture medium containing iMDK dissolved in DMSO (10, 50, 100, 500 nmol/L). DMSO alone was used as the control. Cells were treated for 48 hours and collected by trypsinization. Viable cells were assessed by trypan blue exclusion. Recombinant MDK was purchased from R&D Systems (Minneapolis, Minn.) and reconstituted in water for block experiments. For MDK block experiments, H441 cells were cultured in Dulbecco's modified Eagle medium supplemented with 1% heat-inactivated fetal bovine overnight and recombinant MDK (25 nM) or/and iMDK (25 nM) was added for an additional 48 hours.

The subject of a further data set is NHLF cells. The experiment in a line: Flow cytometric analysis for apoptosis (sub-G0/G1 DNA content), NHLF. It counts as cell-based, human. The conditions noted are these: DMSO control 0.32%. As to the method:
as §3
(In general: A flow cytometer gives signals particle by particle.)

In a further data set the test system is AKT. The experiment in a line: Immunoblot of AKT phosphorylation in H441 cells. Type of data set: cell-based, human. The conditions noted are these: H441, dose- and time-dependent. The procedure: as §2
Where [9] appears, read: 48 hours after 9 mg/kg intraperitoneal.

By EC50 is commonly meant the midpoint of the concentration-response curve. Lower therefore signals a more potent agent. Regarding `O=c1oc2ccccc2cc1-c1cn2cc(Cc3ccc(Cl)cc3)sc2n1` [Example compound 1], in data set [1], it took 0.014 µM to reach a half-maximal effect (EC50).

The compound `O=c1oc2ccccc2cc1-c1cn2cc(Cc3cc(Cl)ccc3Cl)sc2n1` [Example compound 4] gave an EC50 in [1] of 0.0159 µM.

Take `O=c1oc2ccccc2cc1-c1cn2cc(Cc3ccc(F)cc3)sc2n1` [Example compound 2, 3-[2-(4-fluorobenzyl)imidazo[2,1-beta][1,3]thiazol-6-yl]-2H-chromen-2-one]: the cell growth entry is “dose-dependently inhibited cell growth” in [2]; “dose-dependently inhibited cell growth” in data set [7] (H441, 0 to 500 nM, 48 hours after treatment); “dose-dependently inhibited cell growth” in data set [8]. Besides, the XIAP expression entry with XIAP was “reduced”. In addition, in data set [1] (reporter screen, dose response), the “activity to reduce expression of midkine (in words)” value is recorded as “exceptional activity”. Further, in the data set on caspase-3, the “cleaved forms of caspase-3” value was “induced”. Besides, the “sub-G0/G1 DNA content” value was 37.00% in the data set on H441 cells [3] (H441, 10 nM) and 60.91% in the data set with H441 cells [3] (H441, 25 nM). In addition, in the data set on H441 cells [4], the nuclear fragmentation entry is reported as “induced nuclear fragmentation in a dose-dependent manner”. Besides, the “volume of the tumors versus control group” value in data set [5] (3 or 5 times a week) was “significantly lower”. The lung tumor growth entry in data set [5] (3 or 5 times a week, from 14 days after inoculation) is “arrested”. For the same compound, in data set [5] (xenograft tumors), the “Tunel staining, DNA fragmentation in tumors” value is listed as “detected DNA fragmentation”. The BAD expression result with BAD was “induced”. In addition, in data set [6] (9 mg/kg intraperitoneal, day 10), the body weight entry is “did not influence”. Further, in data set [6] (setting [9]), the “serum level of ALT” value is “did not influence”. Also, in data set [6] (setting [9]), the “serum level of AST” value was “did not influence”. Moreover, in the data set on survivin, the survivin expression result is given as “reduced”. Further, the “suppression of cell growth with pretreatment of recombinant MDK” value in [7] (H441, recombinant MDK 25 nM, iMDK 25 nM, 48 hours) is “partially blocked”. The “Phosphorylation of PI3K” value in the data set with PI3K was “suppressed”. The “sub-G0G1 DNA content” value came out at 0.52% in the data set on NHLF cells (10 nM) and 1.51% in the data set on NHLF cells (25 nM). In the data set on AKT, the “Phosphorylation of AKT” value was “suppressed”.

The compound `O=c1oc2ccccc2cc1-c1cn2cc(Cc3ccc(Br)cc3)sc2n1` [Example compound 3] displayed an EC50 in data set [1] of 0.0122 µM.
